Data as given in patent US20210238225A1, “PEPTIDOMIMETIC INHIBITORS OF THE PEPTIDYL-PROLYL CIS/TRANS ISOMERASE (PIN1)” (DANA-FARBER CANCER INSTITUTE, INC., priority 2018, published 2021).
Entries after “also recorded” stand apart in the source; their conditions may differ. Non-standard residues stand in square brackets, D forms with d. Residues, ends and D or L forms follow the SMILES beside them. *: point of attachment. 2Nal = N[C@@H](Cc1ccc2ccccc2c1)C(=O)O; Cit = NC(=O)NCCC[C@H](N)C(=O)O; Pip = O=C(O)[C@@H]1CCCCN1; ClAc = O=C(CCl)*

Key:
[1] = biological target: Pin1 Cys 113 (Homo sapiens, UniProt Q13526); assay: Covalent labeling (intact MS); type: binding; conditions: for Covalent? (In tact MS), % labeling: purified Pin1 with 5 μM inhibitor, 0-3 hr
Pin1 Cys 113, sequence (Q13526 whole entry): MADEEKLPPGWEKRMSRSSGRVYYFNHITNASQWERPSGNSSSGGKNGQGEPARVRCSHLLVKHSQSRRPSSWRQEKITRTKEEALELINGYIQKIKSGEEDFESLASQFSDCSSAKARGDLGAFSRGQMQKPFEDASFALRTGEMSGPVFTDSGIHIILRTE
Description: 5 μg of purified Pin1 protein in 50 μL of 20 mM HEPES pH 7.5 and 75 mM NaCl was incubated with 5 μM of respective Pin1 inhibitors for 0-3 hr. A Shimadzu XR HPLC was used to inject the entire sample onto a self-packed reverse-phase column (1/32 in outer diameter×500 μm inner diameter, 5 cm of POROS 50R2 resin). After desalting, protein was eluted with an HPLC gradient (0%-100% B in 4 min, A=0.2 M acetic acid in water, B=0.2 M acetic acid in acetonitrile, flow rate=10 μl/min) into a LTQ XL mass spectrometer (Thermo Fisher Scientific, San Jose, Calif., USA). LTQ XL MS spectra were acquired in centroid mode using the electron multipliers for ion detection. Mass spectra were deconvoluted using MagTran1.03b2 software (Zhang and Marshall, J. Am. Soc. Mass Spectrom. 9:225-233 (1998)).

[2] = biological target: T1, Pin1 (Homo sapiens, UniProt Q13526); assay: X-ray crystallography; set-up: A construct of full-length human Pin1 in a pET28 vector; made in house; host or cells: E. coli BL21 (DE3)
T1 sequence (Q13526 whole entry): as above
Description: A construct of full-length human Pin1 in a pET28 vector was overexpressed in E. coli BL21 (DE3) in LB medium in the presence of […] of kanamycin. Cells were grown at 37° C. to an OD of 0.8, cooled to 17° C., induced with 500 μM isopropyl-1-thio-D-galactopyranoside, incubated overnight at 17° C., collected by centrifugation, and stored at −80° C. Cell pellets were sonicated in buffer A (50 mM hepes 7.5, 300 mM NaCl, 10% glycerol, 10 mM Imidazole, and 3 mM 2-mercaptoethanol (BME) and the resulting lysate was centrifuged at 30,000×g for 40 min. Ni-NTA beads (Qiagen) were mixed with lysate supernatant for 30 min and washed with buffer A. Beads were transferred to an FPLC-compatible column and the bound protein was washed with 15% buffer B (50 mM hepes 7.5, 300 mM NaCl, 10% glycerol, 300 mM imidazole, and 3 mM BME) and eluted with 100% buffer B. Thrombin was added to the eluted protein and incubated at 4° C. overnight. The sample was concentrated and passed through a Superdex® 200 10/300 column (GE healthcare) in a buffer containing 20 mM hepes 7.5, 150 mMNaCl, 5% glycerol, 3 mM DTT, and 1 mM tris(2-carboxyethyl)phosphine (TCEP). Fractions were pooled, concentrated to approximately 37 mg/ml and frozen at −80° C.
Apo protein at a final concentration of 1 mM was crystallized by sitting-drop (200 nL+200 nL) vapor diffusion at 20° C. in the following crystallization buffer: 3 M (NH4)2SO4, 100 mM BisTris-pH 7.0, 1% PEG400, and 1 mM DTT. A volume of 200 nL of 1 mM compound 2b-6 was added directly to crystals for soaking at 20° C. for 16 hrs. Crystals were transferred briefly into crystallization buffer containing 25% glycerol prior to flash-freezing in liquid nitrogen.
Diffraction data from complex crystals were collected at beamline 24ID-E of the NE-CAT at the Advanced Photon Source (Argonne National Laboratory). Data sets were integrated and scaled using XDS (Kabsch, Acta Crystallogr. D Biol. Crystallogr. D66: 133-144 (2010)). […]

[3] = biological target: T1, Pin1; assay: Lysate target engagement (pull down with biotinylated probes; competition assay); type: binding; set-up: endogenous in cells; host or cells: MDA-MB-231; conditions: for Lysate Target Engagement?: TNBC-MDA-MB-231 lysate, biotin/dtb probes: pull down, others: competition, concentration under E5
Description: (§1) TNBC-MDA-MB-231 cells were lysed in lysis buffer (50 mM Hepes pH 7.5, 150 mM NaCl, 1 mM ethylenediaminetetraacetic acid (EDTA), 10% v/v glycerol, 0.5% v/v NP-40, protease inhibitors (Roche)). After clarifying by centrifugation (14,000 rpm for 15 min at 4° C.), lysates were incubated with the indicated concentrations of candidate compound for 1 hour at 4° C. (500 μg of protein per sample, as determined by BCA). Lysates were then incubated with streptavidin agarose resin (30 μL of 1:1 beads: lysis buffer slurry) (Thermo Scientific™, cat. #20349) for 2 hours at 4° C. Beads were washed 4 times with 500 μL of washing buffer (50 mM Hepes, pH 7.5, 10 mM NaCl, 1 mM EDTA, 10% glycerol), then pelleted by centrifugation and dried. The beads were then boiled at 95° C. for 5 minutes in 30 μL of 2× LDS+10% β-mercaptoethanol. Lysates were probed for specified proteins by western blotting using the Bolt system (Life Technologies™).
as §1, with “mM EDTA,” for “mM ethylenediaminetetraacetic acid (EDTA),”, “by centrifugation,” for “by centrifugation (14,000 rpm for 15 min at 4° C.),”, “were pre-incubated” for “were incubated”, “of” for “of candidate”, “compound 18 overnight” for “compound for 1 hour”, “BCA). The lysates were then incubated with 1 μM of compound 2c (desthiobiotin probe) for 1 hour at 4° C.” for “BCA).”

[4] = biological target: Pin1 (GST-Pin1) (Homo sapiens, UniProt Q13526); assay: Chymotrypsin-coupled PPIase assay, inhibition of isomerase activity; type: biochemical; conditions: 12 hours pre-incubation at 4° C.; Cheng-Prusoff equation; read-out: Ki, μM (PPlase Assay)
Pin1 (GST-Pin1), sequence (Q13526 whole entry): as above
Description: Inhibition of Pin1 isomerase activity was determined using the chymotrypsin-coupled PPIase assay, using GST-Pin1 and Suc-Ala-pSer-Pro-Phe-pNA peptide substrate ([…]), as described previously (Yaffe et al., Science 275:1957-1960 (1997)). GST-Pin1 was pre-incubated with the indicated concentrations of compound for 12 hours at 4° C. in buffer containing 35 mM HEPES (pH 7.8), 0.2 mM DTT, and 0.1 mg/mL bovine serum albumin (BSA). Immediately before the assay was started, chymotrypsin (final concentration 6 mg/mL), followed by the peptide substrate (Suc-Ala-pSer-Pro-Phe-pNA peptide substrate, final concentration […]) was added. The Ki value obtained from the PPIase assay was derived from the Cheng-Prusoff equation, Ki=IC50/(1+S/Km), where Km is the Michaelis constant for the used substrate, S is the initial concentration of the substrate in the assay, and IC50 is the […] inhibitory concentration of the inhibitor.

Row | Compound | Covalent? (In tact MS), % labeling [1] | X-Ray Crystal Structure? [2] | Lysate Target Engagement? [3] | Pin1 covalent labeling time course (FIG. 3A) ([1]; over the course of 60 minutes) | binding mode in x-ray co-crystal structure (FIG. 4A) ([2]; 1.8 A resolution, crystal soaking) | Ki [4] [µM] | Lysate Target Engagement? concentration stated for the engagement or pull down ([3]; read with the E4 line of the same compound (complete, partial, probe pull down))
1 | NC(=O)CC[C@H](NC(=O)[C@H](Cc1ccc2ccccc2c1)NC(=O)[C@@H]1CCCCN1C(=O)[C@H](CCC(=O)O)NC(=O)CCl)C(N)=O [Compound 2b-3, (S)-4-(2-Chloroacetamido)-5-((S)-2-(((S)-1-(((S)-1,5-diamino-1,5-dioxopentan-2-yl)amino)-3-(naphthalen-2-yl)-1-oxopropan-2-yl)carbamoyl)piperidin-1-yl)-5-oxopentanoic acid] (ClAc-E[Pip][2Nal]Q-NH2) | Yes (81% | Yes |  |  |  |  | 
2 | N=C(N)NCCC[C@H](NC(=O)[C@H](Cc1ccc2ccccc2c1)NC(=O)[C@@H]1CCCCN1C(=O)[C@H](CCC(=O)O)NC(=O)CCl)C(N)=O [Compound 2b-6, (S)-5-((S)-2-(((S)-1-(((S)-1-Amino-5-guanidino-1-oxopentan-2-yl)amino)-3-(naphthalen-2-yl)-1-oxopropan-2-yl)carbamoyl)piperidin-1-yl)-4-(2-chloroacetamido)-5-oxopentanoic acid] (ClAc-E[Pip][2Nal]R-NH2) | Yes (100% | Yes | No | rapidly labeled Pin1 Cysl 13 | covalently bound to Pin1; also recorded: covalently bound to Cys113 in the PPIase active site | 0.04 | 
3 | NC(=O)NCCC[C@H](NC(=O)[C@H](Cc1ccc2ccccc2c1)NC(=O)[C@@H]1CCCCN1C(=O)[C@H](CCC(=O)O)NC(=O)CCl)C(N)=O [Compound 2b-13, (S)-5-((S)-2-(((S)-1-(((S)-1-Amino-1-oxo-5-ureidopentan-2-yl)amino)-3-(naphthalen-2-yl)-1-oxopropan-2-yl)carbamoyl)piperidin-1-yl)-4-(2-chloroacetamido)-5-oxopentanoic acid] (ClAc-E[Pip][2Nal][Cit]-NH2) |  |  | Yes-Complete |  |  | 0.021 | at 10 μM
